The source of these data is ChEMBL document CHEMBL1201862, “PubChem BioAssay data set” (2004).

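In this assay, cells in 96-well plates receive the compound at five concentrations for 48 hours. Endpoints are linearly interpolated between the surrounding concentrations. GI50 is the concentration that inhibits growth by half.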 Active and inactive are the calls of the source. No stated cut-off is given here; in the data, active = GI50 up to about 1.1 µM and inactive = higher. Where only a bound is given, the exact number is not on record here.

Some test systems named below: U-251; SF-268; ACHN; HCC 2998; T47D; HCT-15; NCI-H23; OVCAR-8; IGROV-1; MDA-MB-435; M14; MDA-MB-231; SK-MEL-5; HCT-116; SR; SNB-75; HL-60; NCI/ADR-RES; HOP-62; OVCAR-4.
Assay in all cases: growth of human tumour cells (NCI), 48 h

Take `O=C1NCCCc2nonc21`: the GI50 in the test on U-251 was > 100 µM (inactive); with SF-268 it was > 100 µM (inactive); in the test with ACHN, > 100 µM (inactive); with HCC 2998, > 100 µM (inactive); in the test on T47D it was > 100 µM (inactive); with HCT-15 it was over 100 µM. The GI50 in the test with NCI-H23, in the test with OVCAR-8, with IGROV-1, in the test on MDA-MB-435, in the test on M14 and in the test with MDA-MB-231 was > 100 µM (inactive) each time. For the same compound, the GI50 in the test with SK-MEL-5, in the test with HCT-116, in the test with SR, in the test with SNB-75, in the test with HL-60 and with NCI/ADR-RES was > 100 µM (inactive) each time. In addition, the GI50 in the test on HOP-62 and with OVCAR-4 was > 100 µM (inactive) throughout.

`c1nnc(NCNc2nncs2)s1`: the GI50 in the test with U-251 was 50 µM (inactive); in the test on SF-268, > 100 µM (inactive); in the test on ACHN it was 29.4 µM (inactive); in the test on HCC 2998, 19.2 µM (inactive); in the test with T47D it was 90.4 µM (inactive); in the test with HCT-15 it was 40.2 µM. Moreover, the GI50 in the test with NCI-H23 was 47.9 µM (inactive); in the test on OVCAR-8, 69.5 µM (inactive); in the test with IGROV-1 it was 49.1 µM (inactive); in the test on MDA-MB-435, 28.6 µM (inactive); in the test on M14 it was 43.1 µM (inactive); in the test on MDA-MB-231, 30.7 µM (inactive). In addition, the GI50 was 62.2 µM (inactive) in the test on SK-MEL-5; 33.7 µM (inactive) in the test with HCT-116; 36.8 µM (inactive) in the test on SR; 30 µM (inactive) in the test on SNB-75; 46.3 µM (inactive) in the test with HL-60; > 100 µM (inactive) with NCI/ADR-RES. Also, the GI50 with HOP-62 was 46.5 µM (inactive); in the test with OVCAR-4, 11.7 µM (inactive).

For the compound `CC(=O)O[C@H]1C(=O)[C@@]2(C)[C@H]([C@H](OC(=O)c3ccccc3)[C@]3(O)C[C@H](OC(=O)[C@H](O)[C@@H](NC(=O)c4ccc(N)cc4)c4ccccc4)C(C)=C1C3(C)C)[C@]1(OC(C)=O)CO[C@@H]1C[C@@H]2O`, the GI50 was < 0.005 µM (active) in the test on U-251; 0.0107 µM (active) in the test on SF-268; 0.711 µM (active) with ACHN; < 0.005 µM (active) in the test with HCC 2998; < 0.005 µM (active) with T47D; 2.68 µM with HCT-15. The GI50 in the test with OVCAR-8 was 0.0105 µM (active); in the test with IGROV-1, 0.014 µM (active); in the test with MDA-MB-435, 0.0158 µM (active); in the test on M14, 0.0188 µM (active); with MDA-MB-231, 0.22 µM (active); in the test with SK-MEL-5 it was < 0.005 µM (active). Besides, the GI50 is < 0.005 µM (active) in the test with HCT-116; < 0.005 µM (active) with SR; < 0.005 µM (active) in the test on SNB-75; < 0.005 µM (active) with HL-60; 15.3 µM (inactive) in the test with NCI/ADR-RES; 0.0253 µM (active) in the test with HOP-62. Further, in the test on OVCAR-4, the GI50 was > 31.8 µM (inactive).

Take `CN(C)C(=O)CO/N=C1/C(=C2/C(=O)Nc3ccccc32)Nc2ccccc21`: the GI50 in the test with U-251 is 26.6 µM (inactive); in the test on SF-268, > 100 µM (inactive); in the test with ACHN, > 100 µM (inactive); in the test with HCC 2998, > 100 µM (inactive); in the test with T47D, > 100 µM (inactive); with HCT-15 it was over 100 µM. Moreover, the GI50 in the test on NCI-H23 was > 100 µM (inactive); in the test with OVCAR-8 it was > 100 µM (inactive); in the test with IGROV-1 it was > 100 µM (inactive); with MDA-MB-435, > 100 µM (inactive); with M14 it was 97.3 µM (inactive); in the test on MDA-MB-231, > 100 µM (inactive). Also, the GI50 in the test on SK-MEL-5 was 37.3 µM (inactive); with HCT-116, 94.8 µM (inactive); in the test with SR it was 88.7 µM (inactive); with SNB-75, 30.4 µM (inactive); with HL-60, > 100 µM (inactive); with NCI/ADR-RES, > 100 µM (inactive). Besides, the GI50 in the test with HOP-62 is 18.7 µM (inactive); in the test on OVCAR-4 it was > 100 µM (inactive).

For the compound `O=C1/C(=C/Cc2ccco2)N=C(c2ccccc2)N1c1nc2ccc(Sc3ccccc3)cc2[nH]1`, the GI50 with U-251 was 19.7 µM (inactive); in the test with SF-268, 18.9 µM (inactive); with ACHN, 19.4 µM (inactive); in the test on HCC 2998, 16.9 µM (inactive); with T47D, 32.1 µM (inactive); in the test with HCT-15 it was 30.5 µM. The GI50 with OVCAR-8 is 20.9 µM (inactive); in the test with IGROV-1, 30.3 µM (inactive); with MDA-MB-435, 5.52 µM (inactive); in the test on M14, 19.7 µM (inactive); in the test on MDA-MB-231 it was 20.5 µM (inactive); with SK-MEL-5, 15.9 µM (inactive). The GI50 was 17.8 µM (inactive) with HCT-116; 13.6 µM (inactive) in the test with SR; 19.5 µM (inactive) in the test with SNB-75; 21.7 µM (inactive) in the test on HL-60; 23.6 µM (inactive) with NCI/ADR-RES; 30.1 µM (inactive) in the test with HOP-62. Further, in the test on OVCAR-4, the GI50 was 24.2 µM (inactive).

Turning to `CSc1ncnc2c1CCN2`, the GI50 in the test with SF-268 was > 10 µM (inactive); with ACHN it was > 10 µM (inactive); in the test with HCC 2998, > 10 µM (inactive); with T47D it was > 10 µM (inactive); with HCT-15 it was over 100 µM; in the test with NCI-H23, 4.51 µM (inactive). In addition, the GI50 with OVCAR-8 is > 10 µM (inactive); in the test on IGROV-1, > 10 µM (inactive); with MDA-MB-435, 2.21 µM (inactive); in the test with M14, > 10 µM (inactive); in the test with MDA-MB-231, > 10 µM (inactive); in the test with SK-MEL-5, 2.92 µM (inactive). The GI50 is 6.07 µM (inactive) in the test on HCT-116; 1.78 µM (inactive) in the test with SR; > 10 µM (inactive) in the test with SNB-75; 4.29 µM (inactive) with HL-60; > 10 µM (inactive) in the test with NCI/ADR-RES; > 100 µM (inactive) in the test with HOP-62. The GI50 in the test with OVCAR-4 is > 10 µM (inactive).

For `CCOc1cc(NC(C)=O)ccc1C(=O)N/N=C/c1ccco1`, the GI50 in the test on SF-268 is > 100 µM (inactive); in the test with ACHN it was 35.6 µM (inactive); in the test on HCC 2998, > 100 µM (inactive); in the test on T47D, > 100 µM (inactive); with HCT-15 it was over 100 µM; with NCI-H23 it was > 100 µM (inactive). The GI50 with OVCAR-8 is > 100 µM (inactive); in the test with IGROV-1, 94 µM (inactive); with MDA-MB-435 it was > 100 µM (inactive); with MDA-MB-231, > 100 µM (inactive); in the test on SK-MEL-5 it was > 100 µM (inactive); in the test with HCT-116, > 100 µM (inactive). In addition, the GI50 was 9.95 µM (inactive) in the test with SR; > 100 µM (inactive) in the test on SNB-75; 27.9 µM (inactive) in the test on HL-60; > 100 µM (inactive) in the test with NCI/ADR-RES; > 100 µM (inactive) in the test on HOP-62; > 100 µM (inactive) in the test with OVCAR-4.

Take `O=C(Cc1ccccc1F)NC1=C(Cl)C(=O)c2ccccc2C1=O`: the GI50 was 0.65 µM (active) in the test with U-251; 0.543 µM (active) in the test on ACHN; 3.48 µM (inactive) in the test with HCC 2998; 1.87 µM (inactive) in the test on T47D; 0.54 µM in the test on HCT-15; 0.778 µM (active) in the test on NCI-H23. Further, the GI50 in the test with OVCAR-8 is 2.16 µM (inactive); in the test with IGROV-1 it was 1.46 µM (inactive); in the test on MDA-MB-435, 2.77 µM (inactive); in the test on M14 it was 0.802 µM (active); in the test with MDA-MB-231, 2.69 µM (inactive); in the test with SK-MEL-5, 1.06 µM (active). Besides, the GI50 in the test on HCT-116 was 0.459 µM (active); in the test with SR, 0.578 µM (active); in the test with SNB-75, 0.655 µM (active); in the test with HL-60 it was 0.31 µM (active); in the test on NCI/ADR-RES it was 1.95 µM (inactive); with HOP-62, 5.48 µM (inactive). Besides, the GI50 in the test with OVCAR-4 is 0.659 µM (active).
